According to patent publication US11008572B2, “Methods and compositions for modulating splicing” (SKYHAWK THERAPEUTICS, INC., priority 2017, dated 2021):
Like-named read-outs stand apart in the source and are kept apart here.

Assays:
[1] = tested on: FOXM1^A2 mRNA and FOXM1^BC mRNA; test: Splicing assay (FOXM1), qPCR of isoform mRNAs; type: cell-based
In short: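 Cells (20,000/well) treated at plating with compound, 8-point 4-fold series from 10 μM, 0.2% DMSO, 24 h at 37° C. Isoform mRNAs quantified by RT-qPCR against plasmid standards, normalized to PPIA and DMSO control; isoform ratio computed per concentration.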

A-673 cells = test: Cell viability, crystal violet staining; type: cell-based; settings: Homo sapiens
In short: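 Readout is absorbance at 570 nm of crystal violet, taken up in 0.1 M sodium citrate in 50% ethanol after staining with 0.5% dye in 25% methanol. Plates held 5×10^3 cells per well, and compounds were added one day after seeding for 72 hours. Data are relative to vehicle, mean±SE.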

[2] = FoxM1 BC mRNA decrease (exon included), read-out: Splice IC50 (nM) FoxM1 BC mRNA decrease (exon included)
[3] = read-out: Splice EC50 (nM) FoxM1 A mRNA increase (exon excluded)
[4] = A673, cell viability, read-out: A-673 IC50 (nM) Cell viability
[5] = 24 h, FoxM1 BC mRNA decrease (exon included), 0.1-1000 nM, 24 hours, read-out: Splice IC50 (nM), FoxM1 BC mRNA decrease (exon included)
[6] = FoxM1 A mRNA increase (exon excluded), 0.1-1000 nM, 24 hours, read-out: Splice EC50 (nM), FoxM1 A mRNA increase (exon excluded)
[7] = A673, cell viability, read-out: A-673 IC50 (nM), Cell viability
[8] = Homo sapiens, A673, 24 h, A-673 cells, 24 hours, table does not say EC50 or IC50, read-out: FOXM1
[9] = Homo sapiens, A-375, 24 h, A-375 cells, 24 hours, table does not say EC50 or IC50, read-out: FOXM1

Oc1cc(-c2cn[nH]c2)ccc1-c1ccc(O[C@@H]2C[C@H]3COC[C@@H](C2)N3)nn1 [compound 159, 2-(6-(((1R,5S,7r)-3-oxa-9-azabicyclo[3.3.1]nonan-7-yl)oxy)pyridazin-3-yl)-5-(1H-pyrazol-4-yl)phenol]
IC50 [1, 2]: 501 to 1000 nM
EC50 [1, 3]: 251 to 500 nM
IC50 (A-673 cells; [4]): 501 to 1000 nM

Cc1cn(-c2ccc(-c3ccc(N(C)[C@@H]4C[C@H]5CC[C@@H](C4)N5)nn3)c(O)c2)nn1 [compound 225, 2-(6-(((1R,3s,5S)-8-azabicyclo[3.2.1]octan-3-yl)(methyl)amino)pyridazin-3-yl)-5-(4-methyl-1H-1,2,3-triazol-1-yl)phenol]
IC50 [1, 5]: 10 to 100 nM
EC50 [1, 6]: 10 to 100 nM
IC50 (A-673 cells; [7]): 10 to 100 nM

COc1cc(-c2ccc(-c3ccc(N(C)[C@H]4C[C@]5(C)CC[C@](C)(C4)N5)nn3)c(O)c2)cnn1 [compound 191, 2-(6-(((1R,3s,5S)-1,5-dimethyl-8-azabicyclo[3.2.1]octan-3-yl)(methyl)amino)pyridazin-3-yl)-5-(6-methoxypyridazin-4-yl)phenol]
IC50 [1, 8]: < 1 nM
IC50 [1, 9]: 1 to 10 nM
IC50 ([1]; Homo sapiens, K562, 24 h, K-562 cells, 24 hours, table does not say EC50 or IC50, read-out: FOXM1): 1 to 10 nM
IC50 ([1]; Homo sapiens, MDA-MB-468, 24 h, MDA-MB-468 cells, 24 hours, table does not say EC50 or IC50, read-out: FOXM1): 1 to 10 nM
IC50 ([1]; Homo sapiens, NCI-H358, 24 h, NCI-H358 cells, 24 hours, table does not say EC50 or IC50, read-out: FOXM1): 1 to 10 nM
IC50 ([1]; Homo sapiens, PANC-1, 24 h, PANC-1 cells, 24 hours, table does not say EC50 or IC50, read-out: FOXM1): 101 to 200 nM
IC50 ([1]; Homo sapiens, PC-3, 24 h, PC-3 cells, 24 hours, table does not say EC50 or IC50, read-out: FOXM1): 11 to 100 nM
IC50 ([1]; Homo sapiens, U-87 MG, 24 h, U-87MG cells, 24 hours, table does not say EC50 or IC50, read-out: FOXM1): 11 to 100 nM
IC50 (A-673 cells; [4]): < 10 nM
IC50 (A-673 cells; A673, read-out: A-673 cell viability (IC50)): < 1 nM

Cc1ccn(-c2ccc(-c3ccc(O[C@@H]4C[C@H]5CC[C@@H](C4)N5)nn3)c(O)c2)n1 [compound 250, 2-(6-(((1R,3s,5S)-8-azabicyclo[3.2.1]octan-3-yl)oxy)pyridazin-3-yl)-5-(3-methyl-1H-pyrazol-1-yl)phenol]
IC50 [1, 5]: 101 to 250 nM
EC50 [1, 6]: 10 to 100 nM
IC50 (A-673 cells; [7]): 501 to 1000 nM

CN(c1ccc(-c2ccc(-n3cccn3)cc2O)nn1)[C@@H]1C[C@H]2CC[C@@H](C1)N2 [compound 220, 2-(6-(((1R,3s,5S)-8-azabicyclo[3.2.1]octan-3-yl)(methyl)amino)pyridazin-3-yl)-5-(1H-pyrazol-1-yl)phenol]
IC50 [1, 5]: 10 to 100 nM
EC50 [1, 6]: < 10 nM
IC50 (A-673 cells; [7]): 10 to 100 nM

Oc1cc(-c2cn[nH]c2)ccc1-c1ccc(O[C@H]2C[C@H]3COC[C@@H](C2)N3)nn1 [compound 158, 2-(6-(((1R,5S,7s)-3-oxa-9-azabicyclo[3.3.1]nonan-7-yl)oxy)pyridazin-3-yl)-5-(1H-pyrazol-4-yl)phenol]
IC50 [1, 2]: > 1000 nM
EC50 [1, 3]: > 1000 nM
IC50 (A-673 cells; [4]): > 1000 nM

CN(c1ccc(-c2ccc(-c3cn[nH]c3)cc2O)nn1)[C@@H]1[C@@H]2CC[C@H]1CNC2 [compound 144, 2-(6-(((1R,5S,8s)-3-azabicyclo[3.2.1]octan-8-yl)(methyl)amino)pyridazin-3-yl)-5-(1H-pyrazol-4-yl)phenol]
IC50 [1, 2]: > 1000 nM
EC50 [1, 3]: > 1000 nM
IC50 (A-673 cells; [4]): 501 to 1000 nM

CN(c1ccc(-c2cc3oc(C(=O)NC4CC4)cc3cc2O)nn1)[C@@H]1C[C@H]2CCC[C@@H](C1)N2 [compound 296, 6-(6-(((1R,3s,5S)-9-azabicyclo[3.3.1]nonan-3-yl)(methyl)amino)pyridazin-3-yl)-N-cyclopropyl-5-hydroxybenzofuran-2-carboxamide]
IC50 [1, 5]: 10 to 100 nM
EC50 [1, 6]: < 10 nM
IC50 (A-673 cells; [7]): 101 to 250 nM

CN(c1ccc(-c2ccc(-c3cn[nH]c3)cc2O)nn1)[C@@H]1C[C@@H]2C[C@H]1CN2 [compound 147, 2-(6-(((1S,4S,5R)-2-azabicyclo[2.2.1]heptan-5-yl)(methyl)amino)pyridazin-3-yl)-5-(1H-pyrazol-4-yl)phenol]
IC50 [1, 2]: 251 to 500 nM
EC50 [1, 3]: 101 to 250 nM
IC50 (A-673 cells; [4]): > 1000 nM

CN(c1ccc(-c2cc(F)c(-c3ccn(C)c(=O)c3)cc2O)nn1)[C@@H]1C[C@H]2CCC[C@@H](C1)N2 [compound 285, 4-(4-(6-(((1R,3s,5S)-9-azabicyclo[3.3.1]nonan-3-yl)(methyl)amino)pyridazin-3-yl)-2-fluoro-5-hydroxyphenyl)-1-methylpyridin-2(1H)-one]
IC50 [1, 5]: < 10 nM
EC50 [1, 6]: > 1000 nM
IC50 (A-673 cells; [7]): < 10 nM

CN(c1ccc(-c2ccc(-n3cncn3)cc2O)nn1)[C@@H]1C[C@H]2CC[C@@H](C1)N2 [compound 243]
IC50 [1, 5]: 10 to 100 nM
EC50 [1, 6]: < 10 nM
IC50 (A-673 cells; [7]): 10 to 100 nM

[2H]C([2H])([2H])c1ncc(-c2cc(O)c(-c3ccc(N(C)[C@H]4C[C@]5(C)CC[C@](C)(C4)N5)nn3)cc2F)o1 [compound 304, 2-(6-(((1R,3s,5S)-1,5-dimethyl-8-azabicyclo[3.2.1]octan-3-yl)(methyl)amino)pyridazin-3-yl)-4-fluoro-5-(2-(methyl-d3)oxazol-5-yl)phenol]
IC50 [1, 5]: < 10 nM
EC50 [1, 6]: > 1000 nM
IC50 (A-673 cells; [7]): 10 to 100 nM

CN(c1ccc(-c2ccc(-c3nnn[nH]3)cc2O)nn1)[C@@H]1C[C@H]2CC[C@@H](C1)N2 [compound 227, 2-(6-(((1R,3s,5S)-8-azabicyclo[3.2.1]octan-3-yl)(methyl)amino)pyridazin-3-yl)-5-(1H-tetrazol-5-yl)phenol]
IC50 [1, 5]: > 1000 nM
EC50 [1, 6]: > 1000 nM
IC50 (A-673 cells; [7]): > 1000 nM

[2H]C([2H])([2H])n1ncc(-c2ccc(-c3ccc(N(C)C4CC5CCCC(C4)N5)nn3)c(O)c2)cc1=O [compound 281, 5-(4-(6-(((1R,3s,5S)-9-azabicyclo[3.3.1]nonan-3-yl)(methyl)amino)pyridazin-3-yl)-3-hydroxyphenyl)-2-(methyl-d3)pyridazin-3(2H)-one]
IC50 [1, 5]: < 10 nM
EC50 [1, 6]: < 10 nM
IC50 (A-673 cells; [7]): < 10 nM

CN(c1ccc(-c2ccc(-n3nccn3)cc2O)nn1)[C@@H]1C[C@H]2CCC[C@@H](C1)N2 [compound 275, 2-(6-(((1R,3s,5S)-9-azabicyclo[3.3.1]nonan-3-yl)(methyl)amino)pyridazin-3-yl)-5-(2H-1,2,3-triazol-2-yl)phenol]
IC50 [1, 5]: < 10 nM
EC50 [1, 6]: < 10 nM
IC50 (A-673 cells; [7]): < 10 nM

CNC(=O)c1cc2cc(O)c(-c3ccc(N(C)[C@H]4C[C@]5(C)CC[C@](C)(C4)N5)nn3)cc2o1 [compound 188, 6-(6-(((1R,3s,5S)-1,5-dimethyl-8-azabicyclo[3.2.1]octan-3-yl)(methyl)amino)pyridazin-3-yl)-5-hydroxy-N-methylbenzofuran-2-carboxamide]
IC50 [1, 2]: 10 to 100 nM
EC50 [1, 3]: < 10 nM
IC50 (A-673 cells; [4]): 10 to 100 nM

CN(c1cnc(-c2ccc(-c3cn[nH]c3)cc2O)nc1)C1CC(C)(C)NC(C)(C)C1 [compound 134, 2-(5-(methyl(2,2,6,6-tetramethylpiperidin-4-yl)amino)pyrimidin-2-yl)-5-(1H-pyrazol-4-yl)phenol]
IC50 [1, 2]: > 1000 nM
EC50 [1, 3]: > 1000 nM
IC50 (A-673 cells; [4]): > 1000 nM

CC1(C)CC(N(c2ccc(-c3ccc(-c4cn[nH]c4)cc3O)nn2)C2CC2)CC(C)(C)N1 [compound 129, 2-(6-(cyclopropyl(2,2,6,6-tetramethylpiperidin-4-yl)amino)pyridazin-3-yl)-5-(1H-pyrazol-4-yl)phenol]
IC50 ([1]; 24 h, LP-LoVo cells, 24 hours, table does not say EC50 or IC50, read-out: FOXM1): 1 to 10 nM
IC50 ([1]; 24 h, MDA-MB-231-luc cells, 24 hours, table does not say EC50 or IC50, read-out: FOXM1): < 1 nM
IC50 [1, 8]: < 1 nM
IC50 [1, 9]: < 1 nM
IC50 ([1]; Homo sapiens, MDA-MB-157, 24 h, MDA-MB-157 cells, 24 hours, table does not say EC50 or IC50, read-out: FOXM1): < 1 nM
IC50 ([1]; Homo sapiens, SK-OV-3, 24 h, SKOV3 cells, 24 hours, table does not say EC50 or IC50, read-out: FOXM1): 1 to 10 nM
IC50 ([1]; Homo sapiens, Z-138, 24 h, Z-138 cells, 24 hours, table does not say EC50 or IC50, read-out: FOXM1): < 1 nM
IC50 (A-673 cells; [4]): 251 to 500 nM

CN(c1ccc(-c2ccc(-c3cn[nH]c3)cc2O)nn1)[C@H]1C[C@H]2C[C@@H]1CN2 [compound 146, 2-(6-(((1R,4R,5S)-2-azabicyclo[2.2.1]heptan-5-yl)(methyl)amino)pyridazin-3-yl)-5-(1H-pyrazol-4-yl)phenol]
IC50 [1, 2]: 251 to 500 nM
EC50 [1, 3]: 101 to 250 nM
IC50 (A-673 cells; [4]): > 1000 nM
